{"source": "paper PMC11665553", "about": "“12-Lipoxygenase inhibition delays onset of autoimmune diabetes in human gene replacement mice” (JCI Insight, 2024)", "key": {"C57BL/6J mice": {"tested_on": "C57BL/6J mice", "test": "Multiple low-dose STZ-induced diabetes in WT C57BL/6J mice (random-fed blood glucose, GTT)", "type": "in vivo, mouse", "set-up": "Random-fed blood glucose (Fig 1E) / GTT blood glucose (Fig 1F): unit not given here", "conditions": "for Random-fed blood glucose (Fig 1E): 30 mg/kg i.p. + STZ; for Random-fed blood glucose (Fig 1E) / GTT blood glucose (Fig 1F): listed as ML355; for GTT blood glucose (Fig 1F): Control (C57BL/6J)"}, "NOD.hALOX12 mice [1]": {"tested_on": "NOD.hALOX12 mice", "test": "Insulitis scoring and pancreas immunostaining (CD3, B220, F4/80, MAC2) in NOD.hALOX12 mice", "type": "in vivo, mouse"}, "NOD.hALOX12 mice [2]": {"tested_on": "NOD.hALOX12 mice", "test": "Diabetes incidence (prevention) in NOD.hALOX12 mice", "type": "in vivo, mouse", "conditions": "30 mg/kg p.o. daily, 6–10 weeks of age", "procedure": "Mice were followed for diabetes development (blood glucose ≥250 mg/dL on 2 consecutive days) until 25 weeks of age (Figure 3A).\nDiabetes incidence was determined by observing 2 consecutive blood glucose values greater than 250 mg/dL."}, "NOD.hALOX12 mice [3]": {"tested_on": "NOD.hALOX12 mice", "test": "Oxidative stress immunostaining (4-HNE, GPx1) in NOD.hALOX12 mice", "type": "in vivo, mouse", "description": "We, therefore, immunostained pancreatic sections for markers of cell death and proliferation in the islet.\nFor immunofluorescent staining, pancreatic sections were stained with the following antibodies: anti-insulin (Dako, IR002; 1:4), anti-glucagon (Santa Cruz Biotechnology, sc514592; 1:50), anti-B220 (BioLegend, 03201; 1:100), anti-CD3 (Abcam, ab16669; 1:200), anti-PCNA (Santa Cruz Biotechnology, sc-7907; 1:100), anti–4-HNE (Abcam, ab46545; 1:200), and anti-GPx1 (Santa Cruz Biotechnology, sc-22145; 1:100). Highly cross-adsorbed Alexa Fluor secondary antibodies (Thermo Fisher Scientific) were used at a dilution of 1:500. Tissue sections were stained with DAPI (Thermo Fisher Scientific) to label cell nuclei. The Nikon A1 confocal microscopy was used to capture images. CellProfiler v4.1 software (https://cellprofiler.org/) was used for image analysis."}, "[4]": {"tested_on": "BMDMs from NOD.hALOX12 mice", "test": "RNA sequencing of M0 and M1-like polarized BMDMs", "type": "cell-based, mouse", "source_text": "BMDMs were unpolarized (M0) or polarized to an M1-like state (with lipopolysaccharide and IFN-γ) to mimic the inflammatory state that might be observed during T1D pathogenesis.\nThese common genes mapped to pathways related to cytokine-mediated signaling, T cell activation, and antigen processing and presentation (Supplemental Figure 3B). […] The 507 genes altered with vehicle treatment mapped to GO pathways related to the M1 polarization phenotype (myeloid cell differentiation, immune response, response to cytokines) and pathways related to oxidative stress (cell redox homeostasis, response to hydrogen peroxides) (Figure 5E). These pathways were not identified in the genes that were differentially expressed during VLX-1005 treatment.\nBMDMs were isolated from 8-week-old NOD.hALOX12 mice as described previously ([2]). The isolated BMDMs were cultured for 7 days in complete medium (RPMI 1640 containing 10% FBS, 10 mM HEPES, and 100 U/mL penicillin/streptomycin) supplemented with 10 ng/mL M-CSF. […] After 1-hour pretreatment, the BMDMs were further stimulated with 10 ng/mL LPS and 25 ng/mL IFN-γ for 18 hours for M1-like polarization. RNA was isolated and used for sequencing.\nRNA extraction was performed using RLT Buffer, according to the manufacturer’s instructions (Qiagen). Samples were submitted for library generation and sequencing by the University of Chicago sequencing core using a NovaSeq 6000 (Illumina). Data were analyzed using Galaxy (https://usegalaxy.org/). Reads were aligned to the Mus musculus genome build mm10 using HISAT2 (https://daehwankimlab.github.io/hisat2/). Individual sample reads were quantified using HTseq-count and normalized using DESeq2 (https://bioconductor.org/packages/release/bioc/html/DESeq2.html). DEseq2 was also used to calculate FCs and P values and to perform optional covariate correction. GO was used for pathway analysis."}, "[5]": {"conditions": "female NOD.hALOX12 mice, 30 mg/kg p.o., 4 weeks"}, "[6]": {"conditions": "sheet Fig 2G, pancreas immunostaining, individual animals, listed as VLX"}, "[7]": {"conditions": "female NOD.hALOX12 mice, 4 weeks of treatment"}, "[8]": {"conditions": "sheet Fig 4E, individual mice, listed as VLX"}, "[9]": {"conditions": "sheet Fig 5G, 4 replicates, listed as VLX"}}, "note": "Values joined by “and” are separate entries in the source; they are usually repeats but may differ in a detail not shown here. Identical values can stand only once.", "data": [{"compound": "COc1cccc(CNc2ccc(S(=O)(=O)Nc3nc4ccccc4s3)cc2)c1O", "note": "[VLX-1005]", "values": [{"measurement": "Random-fed blood glucose (Fig 1E)", "setting": "C57BL/6J mice; C57BL/6J, day 0, individual mice", "value": "180 and 167 and 192 and 187"}, {"measurement": "Random-fed blood glucose (Fig 1E)", "setting": "C57BL/6J mice; C57BL/6J, day 5, individual mice", "value": "172 and 214 and 232 and 221"}, {"measurement": "Random-fed blood glucose (Fig 1E)", "setting": "C57BL/6J mice; C57BL/6J, day 10, individual mice", "value": "253 and 280 and 275 and 278"}, {"measurement": "Random-fed blood glucose (Fig 1E)", "setting": "C57BL/6J mice; C57BL/6J, day 15, individual mice", "value": "347 and 298 and 284 and 335"}, {"measurement": "Random-fed blood glucose (Fig 1E)", "setting": "C57BL/6J mice; C57BL/6J, day 22, individual mice", "value": "347 and 428 and 437 and 367"}, {"measurement": "Random-fed blood glucose (Fig 1E)", "setting": "C57BL/6J mice; C57BL/6J, day 27, individual mice", "value": "487 and 478 and 512 and 486"}, {"measurement": "Random-fed blood glucose (Fig 1E)", "setting": "C57BL/6J mice; C57BL/6J, day -5, individual mice", "value": "190 and 213 and 199 and 201"}, {"measurement": "GTT AUC (Fig 1G)", "setting": "C57BL/6J mice; C57BL/6J, 30 mg/kg i.p., day 4 after STZ, individual mice", "value": "44930 and 36610 and 49530 and 43880"}, {"measurement": "GTT blood glucose (Fig 1F)", "setting": "C57BL/6J mice; 30 mg/kg i.p., day 4 after STZ, 0 min after glucose, individual mice", "value": "164 and 184 and 175 and 154"}, {"measurement": "GTT blood glucose (Fig 1F)", "setting": "C57BL/6J mice; 30 mg/kg i.p., day 4 after STZ, 10 min after glucose, individual mice", "value": "268 and 395 and 398 and 425"}, {"measurement": "GTT blood glucose (Fig 1F)", "setting": "C57BL/6J mice; 30 mg/kg i.p., day 4 after STZ, 20 min after glucose, individual mice", "value": "532 and 602 (2×) and 658"}, {"measurement": "GTT blood glucose (Fig 1F)", "setting": "C57BL/6J mice; 30 mg/kg i.p., day 4 after STZ, 30 min after glucose, individual mice", "value": "682 and 563 and 602 and 586"}, {"measurement": "GTT blood glucose (Fig 1F)", "setting": "C57BL/6J mice; 30 mg/kg i.p., day 4 after STZ, 60 min after glucose, individual mice", "value": "547 and 425 and 594 and 493"}, {"measurement": "GTT blood glucose (Fig 1F)", "setting": "C57BL/6J mice; 30 mg/kg i.p., day 4 after STZ, 90 min after glucose, individual mice", "value": "459 and 369 and 530 and 452"}, {"measurement": "GTT blood glucose (Fig 1F)", "setting": "C57BL/6J mice; 30 mg/kg i.p., day 4 after STZ, 120 min after glucose, individual mice", "value": "366 and 256 and 369 and 398"}, {"measurement": "Glycemic outcome after STZ", "setting": "C57BL/6J mice; male WT C57BL/6J mice, 30 mg/kg i.p. daily peri-STZ", "value": "became overtly hyperglycemic"}, {"measurement": "T and B cell infiltration (pancreas pathology)", "setting": "NOD.hALOX12 mice [1]; [5]", "value": "reduced T and B cell infiltration"}, {"measurement": "T cells (CD3+), macrophages (F4/80+), activated macrophages (Mac2+) by immunohistochemistry", "setting": "NOD.hALOX12 mice [1]; [5]", "value": "reductions"}, {"measurement": "Extent of insulitis (insulitis scoring) vs vehicle", "setting": "NOD.hALOX12 mice [1]; female NOD.hALOX12 mice, 30 mg/kg p.o., 4 weeks (6–10 weeks of age)", "value": "significantly reduced"}, {"measurement": "Insulitis score (Fig 2E)", "setting": "NOD.hALOX12 mice [1]; individual animals, listed as VLX", "value": "1.633 and 1.787 and 1.784 and 1.529 and 1.472"}, {"measurement": "CD3", "setting": "NOD.hALOX12 mice [1]; [6]", "value": "1.368e-5 and 2.024e-5 and 0.0002739 and 0 and 2.686e-5"}, {"measurement": "F4/80", "setting": "NOD.hALOX12 mice [1]; [6]", "value": "0.00043 and 0.0003528 and 0.0003661 and 0.0004659 and 0.0002593"}, {"measurement": "F4/80 (second Veh/VLX pair)", "setting": "NOD.hALOX12 mice [1]; [6]", "value": "0.000451 and 0.000344 and 0.000488 and 0.0002845"}, {"measurement": "Mice protected from diabetes development at 25 weeks of age", "setting": "NOD.hALOX12 mice [2]; female NOD.hALOX12 mice", "value": 60, "unit": "%"}, {"measurement": "Mice protected from diabetes development at 25 weeks of age", "setting": "NOD.hALOX12 mice [2]; male NOD.hALOX12 mice", "value": 75, "unit": "%"}, {"measurement": "4-HNE immunostaining (oxidative stress marker) vs placebo", "setting": "NOD.hALOX12 mice [3]; [7]", "value": "reduced immunostaining"}, {"measurement": "GPx1 levels in β cells", "setting": "NOD.hALOX12 mice [3]; [7]", "value": "increase"}, {"measurement": "4-hne", "setting": "NOD.hALOX12 mice [3]; [8]", "value": "300.045 and 304.934 and 308.173 and 287.237 and 299.135"}, {"measurement": "GPx1", "setting": "NOD.hALOX12 mice [3]; [8]", "value": "416.4 and 443.77 and 439.26 and 458.35"}, {"measurement": "Magnitude of changes of IFN pathway genes vs vehicle in M1-like BMDMs", "setting": "[4]; 10 μM, P < 0.05 by t test", "value": "augmented significantly"}, {"measurement": "Adar expression (heat map value)", "setting": "[4]; [9]", "value": "1.762 and 1.682 and 1.654 and 1.2"}, {"measurement": "Arrdc4 expression (heat map value)", "setting": "[4]; [9]", "value": "1.769 and 1.684 and 1.6721 and 1.333"}, {"measurement": "Ddx3x expression (heat map value)", "setting": "[4]; [9]", "value": "0.9319 and 0.8926 and 0.8886 and 0.8518"}, {"measurement": "Dhx58 expression (heat map value)", "setting": "[4]; [9]", "value": "2.321 and 1.936 and 1.912 and 1.006"}, {"measurement": "Gigyf2 expression (heat map value)", "setting": "[4]; [9]", "value": "0.9359 and 0.7566 and 0.751 and 0.4484"}, {"measurement": "Kat5 expression (heat map value)", "setting": "[4]; [9]", "value": "0.9038 and 0.7157 and 0.4242 (2×)"}, {"measurement": "Lrrfip2 expression (heat map value)", "setting": "[4]; [9]", "value": "1.898 and 1.808 and 1.658 and 1.413"}, {"measurement": "Mark4 expression (heat map value)", "setting": "[4]; [9]", "value": "1.966 and 1.936 and 1.657 and 1.006"}, {"measurement": "Mmp12 expression (heat map value)", "setting": "[4]; [9]", "value": "0.8105 and 0.4921 (3×)"}, {"measurement": "Ninj1 expression (heat map value)", "setting": "[4]; [9]", "value": "1.769 and 1.701 and 1.685 and 1.401"}, {"measurement": "Nlrp3 expression (heat map value)", "setting": "[4]; [9]", "value": "2.077 and 1.964 and 1.718 and 1.337"}, {"measurement": "Nono expression (heat map value)", "setting": "[4]; [9]", "value": "1.2 and 1.151 and 1.126 and 1.119"}, {"measurement": "Oas1e expression (heat map value)", "setting": "[4]; [9]", "value": "2.321 and 1.949 and 1.675 and 1.657"}, {"measurement": "Pou2f2 expression (heat map value)", "setting": "[4]; [9]", "value": "1.6038 and 1.537 and 1.347 and 1.324"}, {"measurement": "Riok3 expression (heat map value)", "setting": "[4]; [9]", "value": "1.411 and 1.279 and 1.172 and 1.109"}, {"measurement": "Srebf1 expression (heat map value)", "setting": "[4]; [9]", "value": "0.9499 and 0.826 and 0.6628 and 0.3958"}, {"measurement": "Tank expression (heat map value)", "setting": "[4]; [9]", "value": "2.305 and 1.708 and 1.675 and 0.8815"}, {"measurement": "Tlr6 expression (heat map value)", "setting": "[4]; [9]", "value": "2.235 and 2.002 and 1.489 and 1.453"}]}]}
